Data on 2 molecules can be found in patent US12661503B2, “Microcurrent-based skin treatment and pretreatment techniques” (NSE Products, Inc., priority 2022, dated 2026).

Entries after “also recorded” stand apart in the source; their conditions may differ. Where two headings read alike, the source gives them in different places.

Series [1] is described as follows: Franz cell epidermal and dermal retention of tracking marker. The format is in vitro ADME, human or mammalian. As to the method: (§1) FIG. 7A is a schematic diagram of a Franz cell (or cell system) 700 adapted for testing permeability of a skin sample 710.
(§2) The study was conducted in two phases or parts. Round 1a (Round 1: Phase 1a) evaluated the penetration of 1.0% allantoin (an active) in PBS with a galvanic electrical waveform (GEWF), charge-balanced, symmetric electrical waveform (CSW), and a Program Random Pulse Width Modulation electrical waveform ([…]), in a Franz cell model. Details of the testing process includes receptor well collection and processing (Table 2A), and the epidermal and dermal retention protocol to assess penetration of the tracking markers (Table 2B).
Receptor fluid collection was measured at time t=0 (before and immediately after the topical sample treatment), at the end of waveform cycle 1 (t=12 min), at the end of waveform cycle 3 (t=36 m); and at 1 hour (1 h), 6 h and 24 h intervals post-pretreatment with the electrical waveform and treatment with the selected topical agents.
Receptor fluid collection was performed at time t=0 (before and immediately after topical sample treatment), at the end of waveform cycle one (12 m), at the end of waveform cycle three (36 m), and at 1 h, 6 h and 24 h intervals post pre-treatment with the electrical waveform, and treatment with the topical agent.
(§3) The number of Franz cell replicates (Franz cells) per sample was n=3 for non-electrical pretreated samples, and n=6 for pulsed electrical pretreatment samples. The number of Franz cell replicates may also vary. The current flow (I) is given in microamperes (μA), and the pulse time (PT) in minutes (mi) where zeros indicate no electrical current, and no pulse time. In each case, the next include the sample being drawn off (draw off), and post pulse treatment/dosing with phosphate buffered saline (PBS) containing 1.0% allantoin. Assessment times were at post 0.5, 1.0, 6 and 24 hours (hr), assaying for allantoin.

Experiment in series [2]: as above
It counts as in vitro ADME, human or mammalian. This is another data set of the same source.

The nature of series [3]: Franz cell transdermal penetration (receptor fluid) after electrical waveform pretreatment. The format is in vitro ADME, human or mammalian. As to conditions: for transdermal penetration of allantoin, six minute vs three minute pretreatment: CSW at 375, 250 and 125 μA (all current levels).
Source text: as §1
An electrical voltage can be applied to or across the sample 720 via an electrode 740 in contact with the skin sample 730, and a conducting lead 750 disposed in a sampling port 760. Suitable materials for electrode 740 and lead 750 include platinum, silver, copper, and other conducting metals, in porous mesh, wafer, plate, or wire form. A heater 770 can be provided to maintain temperature of the Franz cell 710, sample 720 and donor compound 730, during operation of the system 700.
FIG. 7B is a schematic diagram of a Franz cell system 700 adapted for application of a microcurrent treatment to the skin sample 710. In this example, a galvanic unit or waveform generator 780 can be provided to apply a microcurrent waveform to the skin sample 720; e.g., via a negative polarity platinum wire 755 connected to a porous mesh or wafer electrode 740 on the skin surface, with opposite polarity (+) defined by a platinum lead wire or wire electrode 755. Different metals such as copper or silver can also be used, or other suitable conductors. The polarity can also be reversed, or the lead wire 750 can be used to define a ground potential for the Franz cell 710.
Round one testing was performed for three electrical waveforms with allantoin in PBS (phosphate buffered saline) or the NBS agent. The goal was to compare the three electrical waveforms for their capacity to deliver the one or more components in the NBS v1.18 agent. The delivery was tracked via allantoin measurement, used as a skin penetration tracking marker.
as §2
Samples and treatments included 1.0% allantoin in PBS, with no electrical stimulation. The skin sample was also pretreated with a GEWF (Galvanic Electrical waveform) in PBS for thirty-six minutes (36 m), followed by treatment with a PBS topical or agent containing 1.0% allantoin. Pretreatment was also applied with a charge-balanced, symmetric electrical waveform (CSW) in PBS for 36 m, followed by treatment with a PBS agent containing 1.0% allantoin, or treatment with a Program Random Pulse Width Modulation electrical waveform ([…]) in PBS for 36 m followed by application of a PBS agent with 1.0% allantoin.
The microcurrent dosage delivered ranged up to 375 microampere (μA) for a twelve minute cycle, repeated for three cycles. Receptor fluid collection was measured at time t=0 (before and immediately after the topical sample treatment), at the end of waveform cycle 1 (t=12 min), at the end of waveform cycle 3 (t=36 m); and at 1 hour (1 h), 6 h and 24 h intervals post-pretreatment with the electrical waveform and treatment with the selected topical agents.
Round 1b (Round 1: Phase 1b) testing included evaluation of the NBS v1.18 agent with the GEWF (galvanic electrical waveform), CSW (charge-balanced, symmetric electrical waveform) and […] (Program Random Pulse Width Modulation electrical waveform), in a Franz cell model as described herein. Samples and treatments included the NBS v1.18 agent containing 0.1% allantoin, with no electrical stimulation. […]

Series [4] has as its system upper thigh skin of subjects. The series can be described thus: Tape stripping assessment for allantoin recovery (LC-MS). It counts as in vivo. The following applies: early tape strips one to five; treated vs untreated upper thigh; week twelve. As to the method: Cellulite was further evaluated by measuring circumference of upper thigh during each visit. At the end of study completion at twelve weeks, twenty tape strips were removed from the treated upper thigh area of five subjects chosen […] and five control strips were obtained from an untreated site on the upper thigh.
In addition, the circumference of each subject's upper thigh was measured during each visit as an indicator for improvement in slimming and firmness (see M. H. Gold, K. A. Khatri, K. Hails, R. A. Weiss and N. Fournier, “Reduction in thigh circumference and improvement in appearance of cellulite,” J. of Cosmetic and Laser Therapy 13, February 2011, which is incorporated by reference herein, in the entirety and for all purposes). At the end of study, the twenty tape strips were collected from the treated upper thigh area, and from an untreated upper thigh area from five randomly chosen subjects. Five tape strips from both treated and untreated areas of upper thigh were evaluated for accumulation of allantoin using LC-MS spectroscopy.
FIGS. 20A and 20B are scatter plots illustrating a tape stripping assessment for allantoin recovery in the upper thigh. The results include representative, anonymous, arbitrarily-labeled samples (S2 and S4), as compared to corresponding controls. […]

Series [5] can be described thus: Franz cell tracking marker flux after electrical waveform pretreatment. The format is in vitro ADME, human or mammalian.
Source text: as §1
FIG. 11A is a bar chart illustrating transdermal allantoin penetration, following selected current treatments. FIG. 11B is a bar chart illustrating allantoin retention in the epidermis and dermis, following the selected treatments. FIG. 11C is a bar chart illustrating allantoin flux, following the selected treatments. The Flus is in arbitrary units, for example μg/cm^2/hr, or other suitable, appropriate or convenient measure, as known in the art.
as §3

Setting [6] is: Round Three, FIG. 15B, 1.0% allantoin in PBS.

`NC(=O)NC1NC(=O)NC1=O` (stereo not shown) [allantoin]: the “allantoin retention in epidermis and dermis, GEWF vs CSW and PRPWMEWF” value in series [1] (Round 1a, FIG. 9B, 1.0% allantoin in PBS, 24 h) was “slightly more retention”. In series [1] (setting [6]), the “epidermal retention at pretreatment current of about 375 μA” value is given as “increased epidermal retention” and the “retention in the dermis at lower microcurrent levels (250 μA, 125 μA)” value is on record as “higher retention in the dermis”. In addition, the “skin retention, six minute vs three minute pretreatment” value in series [1] (Round Three, FIG. 15B, all microcurrent levels) is reported as “higher skin retention”. In series [2] (FIG. 11B, test #3 vs #4), the “increase in penetration of allantoin in both epidermis and dermis vs non-electrically stimulated sample with PBS” value was “Greater than fivefold increase”. Besides, the “skin allantoin delivery in epidermis and dermis, electrically treated conductive gel vs non-stimulated” value in series [2] (FIG. 11B, test #9 and #11 vs #10) is 5. In addition, the “increase in penetration in both epidermis and dermis vs non-electrically stimulated sample with PBS” value in series [2] (Round 2b (caffeine), FIG. 13B, test #1 vs #2) is reported as “greater than fivefold increase”. The “epidermal and dermal retention of allantoin, six minute vs three minute pretreatment” value in series [2] (Round Four, FIG. 16B, NBS 0.1% allantoin, about 375 μA) is “increased epidermal and dermal retention”. In series [2] (Round Four, FIG. 16B, about 125 μA), the “allantoin retention, three minute and six minute pretreatments” value is “comparable allantoin retention”. Besides, in series [2] (Round Four, FIG. 16B, about 250 μA, six minute pretreatment), the “allantoin retention in the dermis” value is listed as “stimulate additional allantoin retention in the dermis”. Also, in series [2] (Round Four, FIG. 16B, about 250 μA, three minute pretreatment), the “allantoin retention in the epidermis” value was “stimulate allantoin retention in the epidermis”. For the same molecule, the “difference in allantoin retention in the dermis” value in series [2] (test #5 vs #6, NBS agent 0.1% allantoin, dermis) was “not necessarily a substantial difference”. For the same molecule, the “delivery of allantoin after electrical pre-treatment using conductive gel vs non-electrical pretreatment” value in series [3] (FIG. 11A, test #9 and #11 vs #10, conductive gel containing 1.0% allantoin, Ept-36 min) amounted to 5. Besides, in series [3] (Round 1a, FIG. 9A, 1.0% allantoin in PBS after 36 min pretreatment with galvanic, CSW or PRPWM waveform, up to 375 μA), the “increase in transdermal penetration of allantoin” value is given as “fivefold increase”. Moreover, the “increase in penetration after electrical pre-treatment using PBS vs non-electrical pretreatment, caffeine as tracking marker” value in series [3] (Round 2b, FIG. 13A, test #1 vs #2, Ept-36 min) is on record as “greater than fivefold increase”. For the same molecule, in series [3] (Round Four, FIG. 16A, NBS agent with 0.1% allantoin left on), the “transdermal penetration of allantoin, six minute vs three minute pretreatment” value was “increased transdermal penetration”. In addition, in series [3] (Round Three, FIG. 15A, 1.0% allantoin in PBS), the “transdermal penetration of allantoin, six minute vs three minute pretreatment” value is reported as “increased transdermal penetration”. Moreover, the “allantoin recovered by tape stripping vs background (control) allantoin level” value in series [4] is reported as “increased over the background skin allantoin level”. Also, in series [5] (FIG. 11C, test #3 vs #4), the “increase in penetration of allantoin upon electrical pre-treatment vs non-electrical pretreated sample with PBS (flux chart)” value is on record as “Greater than fivefold increase”. Besides, the “increase in skin allantoin delivery, electrical pre-treatment with conductive gel vs non-stimulated (flux chart)” value in series [5] (FIG. 11C, test #9 and #11 vs #10) was 5. Moreover, the “increase in penetration upon electrical pre-treatment vs non-electrical pretreatment sample with PBS (flux chart)” value in series [5] (Round 2b (caffeine), FIG. 13C, test #1 vs #2) is “greater than fivefold increase”. For the same molecule, in series [5] (Round Four, FIG. 16C, all current levels, 0.5 h to 24 h after pretreatment), the “allantoin flux, six minute vs three minute electrical pretreatment” value is given as “higher allantoin flux”. In series [5] (Round Three, FIG. 15C, 1-6 h), the “allantoin flux at later time point” value is listed as “substantially no flux; also recorded: little or substantially no flux”. Also, in series [5] (Round Three, FIG. 15C, all current levels, 30 m to 1 h following pretreatment), the “allantoin flux at initial time point” value is “increased allantoin flux”.
For the molecule `Cn1c(=O)c2c(ncn2C)n(C)c1=O` [caffeine], the “increase in penetration after electrical pre-treatment using PBS vs non-electrical pretreatment, caffeine as tracking marker” value in series [3] is given as “greater than fivefold increase”.
